Usually IC50 stands for the midpoint of a concentration-inhibition curve.

T1 sequence (Q9UM07 2-663): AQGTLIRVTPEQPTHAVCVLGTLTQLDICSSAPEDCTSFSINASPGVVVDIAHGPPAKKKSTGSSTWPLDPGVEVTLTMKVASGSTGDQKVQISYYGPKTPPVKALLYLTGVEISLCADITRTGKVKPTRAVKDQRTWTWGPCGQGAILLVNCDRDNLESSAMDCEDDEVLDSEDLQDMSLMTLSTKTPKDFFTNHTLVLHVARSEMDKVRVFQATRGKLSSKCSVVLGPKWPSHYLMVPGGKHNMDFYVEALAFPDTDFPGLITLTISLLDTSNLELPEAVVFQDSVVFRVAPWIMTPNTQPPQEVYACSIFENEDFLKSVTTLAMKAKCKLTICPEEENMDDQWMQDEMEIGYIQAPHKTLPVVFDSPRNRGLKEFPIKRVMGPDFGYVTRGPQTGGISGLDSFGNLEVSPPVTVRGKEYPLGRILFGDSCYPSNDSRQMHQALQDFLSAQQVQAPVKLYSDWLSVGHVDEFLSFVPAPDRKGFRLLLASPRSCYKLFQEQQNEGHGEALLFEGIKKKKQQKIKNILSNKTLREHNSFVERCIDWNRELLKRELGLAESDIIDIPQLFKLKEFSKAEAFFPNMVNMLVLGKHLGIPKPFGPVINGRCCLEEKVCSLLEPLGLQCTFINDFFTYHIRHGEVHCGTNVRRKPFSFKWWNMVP

The experiment concerns the target T1, human PAD4 (Homo sapiens, UniProt Q9UM07).
T1 construct: human PAD4 (NM_012387), A2-P663, was PCR amplified; His-SUMO (N, cleaved yes); made in house; host or cells: E. coli BL21(DE3)
Put plainly: In vitro PAD4 BAEE biochemical assay. The settings on record: BAEE substrate 3 mM, 5 nM PAD4, 2 mM calcium chloride; geometric mean of multiple experiments. The essentials: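 Ammonia produced by BAEE deimination (3 mM substrate, 2 h, 25 °C) was read as fluorescent isoindole after o-phthalaldehyde/DTT derivatization, ex 405 nm/em 535 nm. Human PAD4 at 5 nM final, 2 mM calcium, pH 7.6 MOPS; compound preincubated 30 min. IC50s, normalized to BB-Cl-Amidine and DMSO controls, were geometric-mean averaged.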
Take `COc1cc(C(=O)N2[C@H]3CC[C@@H]2[C@H](N)C3)cc2nc(-c3cc4ccc5nc4n3CCCCCC[C@H](C)C(=O)N[C@@H]5C)c(C)n12` [Example 124, (8~{S},11~{R})-17-[7-[(1~{R},2~{R},4~{S})-2-amino-7-azabicyclo[2.2.1]heptane-7-carbonyl]-5-methoxy-3-methyl-imidazo[1,2-a]pyridin-2-yl]-8,11-dimethyl-1,10,19-triazatricyclo[10.5.2.0^{15,18}]nonadeca-12(19),13,15(18),16-tetraen-9-one]: the IC50 was found to be 12 nM.

Take `COc1cc(C(=O)N2[C@H]3CC[C@@H]2[C@H](N)C3)cc2nc(-c3cc4ccc5nc4n3CCCCCCCC(=O)N3CCC[C@H]53)n(C)c12` [Example 125, (2˜{R})-16-[5-[(1˜{R},2˜{R},4˜{S})-2-amino-7-azabicyclo[2.2.1]heptane-7-carbonyl)-7-methoxy-1-methyl-benzimidazol-2-yl]-6,15,21-triazatetracyclo[13.5.2.0^{2,6}.0^{18,22}]docosa-1(21),16,18(22),19-tetraen-7-one]: the IC50 was determined as 21 nM.

In the case of `COc1cc(C(=O)N2[C@H]3CC[C@@H]2[C@H](N)C3)cc2nc(-c3cc4ccc5nc4n3CCCCCC(C)(C)C(=O)N[C@@H]5C)c(C)n12` [Example 126, (10~{R})-16-[7-[(1~{R},2~{R},4~{S})-2-amino-7-azabicyclo[2.2.1]heptane-7-carbonyl]-5-methoxy-3-methyl-imidazo[1,2-a]pyridin-2-yl]-7,7,10-trimethyl-1,9,18-triazatricyclo[9.5.2.0^{14,17}]octadeca-11(18),12,14(17),15-tetraen-8-one], the IC50 is 25 nM.

Take `COc1cc(C(=O)N2[C@H]3CC[C@@H]2[C@H](N)C3)cc2nc(-c3cc4ccc5nc4n3CCCCCCCCC(=O)N5C)c(C)n12` [Example 127, 17-[7-[(1˜{R},2˜{R},4˜{S})-2-amino-7-azabicyclo[2.2.1]heptane-7-carbonyl]-5-methoxy-3-methyl-imidazo[1,2-a]pyridin-2-yl]-11-methyl-1,11,19-triazatricyclo[10.5.2.0^{15,18}]nonadeca-12(19),13,15(18),16-tetraen-10-one]: the IC50 was found to be 31 nM.

Regarding `COc1cc(C(=O)N2[C@H]3CC[C@@H]2[C@H](N)C3)cc2nc(-c3cc4ccc5nc4n3CCCCCC(=O)N3CCC[C@H]53)n(C)c12` [Example 128, (2~{R})-14-[5-[(1~{R},2~{R},4~{S})-2-amino-7-azabicyclo[2.2.1]heptane-7-carbonyl]-7-methoxy-1-methyl-benzimidazol-2-yl]-6,13,19-triazatetracyclo[11.5.2.0^{2,6}.0^{16,20}] icosa-1(19),14,16(20),17-tetraen-7-one], the IC50 came to 13 nM.

As for `COc1cc(C(=O)N2[C@H]3CC[C@@H]2[C@H](N)C3)cc2nc(-c3cc4ccc5cc4n3CCCCCCCC(=O)N3CCC[C@H]53)n(C)c12` [Example 129, (2~{R})-16-[5-[(1~{R},2~{R},4~{S})-2-amino-7-azabicyclo[2.2.1]heptane-7-carbonyl]-7-methoxy-1-methyl-benzimidazol-2-yl]-6,15-diazatetracyclo[13.5.2.0^{2,6}.0^{18,22}] docosa-1(21),16,18(22),19-tetraen-7-one], the IC50 worked out at 13 nM.

For the compound `COc1cc(C(=O)N2[C@H]3CC[C@@H]2[C@H](N)C3)cc2nc(-c3cc4ccc5nc4n3CCCCCCCCC(=O)N3CCC[C@H]53)n(C)c12` [Example 130, (2~{R})-17-[5-[(1~{R},2~{R},4~{S})-2-amino-7-azabicyclo[2.2.1]heptane-7-carbonyl]-7-methoxy-1-methyl-benzimidazol-2-yl]-6,16,22-triazatetracyclo[14.5.2.0^{2,6}.0^{19,23}] tricosa-1(22),17,19(23),20-tetraen-7-one], the IC50 came out at 21 nM.

Turning to `COc1cc(C(=O)N2[C@H]3CC[C@@H]2[C@H](N)C3)cc2nc(-c3cc4ccc5nc4n3CCCCCCC(=O)N3CCC[C@H]53)n(C)c12` [Example 131, (2~{R})-15-[5-[(1~{R},2~{R},4~{S})-2-amino-7-azabicyclo[2.2.1]heptane-7-carbonyl]-7-methoxy-1-methyl-benzimidazol-2-yl]-6,14,20-triazatetracyclo[12.5.2.0^{2,6}.0^{17,21}] henicosa-1(20),15,17(21),18-tetraen-7-one], the IC50 was determined as 15 nM.

Consider `COc1cc(C(=O)N2[C@H]3CC[C@@H]2[C@H](N)C3)cc2nc(-c3cc4ccc5nc4n3CCCCOCCC(=O)N3CCC[C@H]53)n(C)c12` [Example 132, (2~{R})-16-[5-[(1~{R},2~{R),4~{S})-2-amino-7-azabicyclo[2.2.1]heptane-7-carbonyl]-7-methoxy-1-methyl-benzimidazol-2-yl]-10-oxa-6,15,21-triazatetracyclo[13.5.2.0^{2,6}.0^{18,22}] docosa-1(21),16,18(22),19-tetraen-7-one], for which the IC50 turned out to be 28 nM.

In the case of `COc1cc(C(=O)N2[C@H]3CC[C@@H]2[C@H](N)C3)cc2nc(-c3cc4ccc5nc4n3CCCCOCC(=O)N3CCC[C@H]53)n(C)c12` [Example 133, (2~{R})-15-[5-[(1~{R},2~{R},4~{S})-2-amino-7-azabicyclo[2.2.1]heptane-7-carbonyl]-7-methoxy-1-methyl-benzimidazol-2-yl]-9-oxa-6,14,20-triazatetracyclo[12.5.2.0^{2,6}.0^{17,21}] henicosa-1(20),15,17(21),18-tetraen-7-one], the IC50 stood at 47 nM.

For `COc1cc(C(=O)N2[C@H]3CC[C@@H]2[C@H](N)C3)cc2nc(-c3cc4ccc5nc4n3CCCCCCCC(=O)N3CC4(CC4)CC53)n(C)c12` (stereo partly shown) [Example 134, 16-[5-[(1˜{R},2˜{R},4˜{S})-2-amino-7-azabicyclo[2.2.1]heptane-7-carbonyl]-7-methoxy-1-methyl-benzimidazol-2-yl]spiro[6,15,21-triazatetracyclo[13.5.2.0^{2,6}.0^{18,22}]docosa-1(21),16,18(22),19-tetraene-4,1′-cyclopropane]-7-one], the IC50 came out at 125 nM.

As for `COc1cc(C(=O)N2[C@H]3CC[C@@H]2[C@H](N)C3)cc2nc(-c3cc4ccc5nc4n3CCCCCCCC(=O)N3C[C@@H]4C[C@@H]4[C@H]53)n(C)c12` [Example 135, (2~{R),3~{S},5~{R})-17-[5-[(1~{R},2~{R},4~{S})-2-amino-7-azabicyclo[2.2.1]heptane-7-carbonyl]-7-methoxy-1-methyl-benzimidazol-2-yl]-7,16,22-triazapentacyclo [14.5.2.0^{2,7}.0^{3,5}.0^{19,23}] tricosa-1(22),17,19(23),20-tetraen-8-one], the IC50 stood at 37 nM.

For `COc1cc(C(=O)N2[C@H]3CC[C@@H]2[C@H](N)C3)cc2nc(-c3cc4ccc5nc4n3CCCCCC[C@@H](C)C(=O)N[C@@H]5C)n(C)c12` [Example 136, (8~{R},11~{R})-17-[5-[(1~{R},2~{R},4~{S})-2-amino-7-azabicyclo[2.2.1]heptane-7-carbonyl]-7-methoxy-1-methyl-benzimidazol-2-yl]-8,11-dimethyl-1,10,19-triazatricyclo[10.5.2.0^{15,18}]nonadeca-12(19),13,15(18),16-tetraen-9-one], the IC50 was 40 nM.

The values are drawn from US11976083B2, “Inhibitors of peptidylarginine deiminases” (Gilead Sciences, Inc., priority 2020, dated 2024).
